Legend:
[1] = system: LTB4 synthesis in human whole blood; assay: human whole blood (HWB) assay, inhibition of LTB4 production; assay type: cell-based; conditions: heparinized human whole blood, calcimycin 20 μM stimulation, plasma LTB4
In short: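 Plasma LTB4, quantified by HTRF immunoassay, is the read-out after calcimycin challenge (20 μM final, 30 min, 37 °C) of heparinized whole blood that had been pretreated with compound for 15 min at 37 °C; values given as IC50.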

human LTA4 hydrolase = target: T1, human LTA4 hydrolase (Homo sapiens, UniProt P09960); assay: LTA4H Enzyme assay (peptidase, Arg-AMC cleavage); assay type: biochemical; conditions: LTA4H enzyme 1 nM, Arg-AMC substrate 50 μM, room temperature 1 h, fluorescence 380/460 nm
T1 sequence (P09960 1-611): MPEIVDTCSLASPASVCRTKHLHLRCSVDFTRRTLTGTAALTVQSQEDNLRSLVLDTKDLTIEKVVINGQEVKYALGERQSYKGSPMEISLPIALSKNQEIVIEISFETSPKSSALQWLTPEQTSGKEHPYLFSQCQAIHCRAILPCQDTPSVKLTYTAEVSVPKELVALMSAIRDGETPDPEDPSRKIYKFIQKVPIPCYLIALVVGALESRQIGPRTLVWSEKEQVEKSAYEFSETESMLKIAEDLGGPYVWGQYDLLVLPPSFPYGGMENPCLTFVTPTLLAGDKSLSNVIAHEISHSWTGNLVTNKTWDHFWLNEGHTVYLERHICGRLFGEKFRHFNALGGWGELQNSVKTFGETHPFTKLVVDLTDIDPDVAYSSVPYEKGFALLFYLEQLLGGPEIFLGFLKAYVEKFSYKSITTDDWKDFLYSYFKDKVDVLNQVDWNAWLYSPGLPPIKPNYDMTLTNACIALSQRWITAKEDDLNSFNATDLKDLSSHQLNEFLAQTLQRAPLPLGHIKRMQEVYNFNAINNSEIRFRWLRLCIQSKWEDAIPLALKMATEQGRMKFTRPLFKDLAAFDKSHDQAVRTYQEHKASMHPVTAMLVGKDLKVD
In short: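 Human LTA4H (1 nM final) incubated with compound and Arg-AMC (50 μM final) in 50 mM Tris-HCl pH 7.5, 100 mM KCl, 0.5% BSA, 1 h at room temperature. Product read as AMC fluorescence (ex 380/em 460 nm); IC50 reported.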

| Structure (SMILES) | IC50 [1] [nM] | IC50 (human LTA4 hydrolase) [nM] |
| --- | --- | --- |
| CC(=O)N1CCCN(CCC2COc3cc(Oc4ccc(-c5ccn[nH]5)cn4)ccc32)CC1 (centres unmarked) [Example 135, 1-[4-(2-{6-[5-(2H-Pyrazol-3-yl)-pyridin-2-yloxy]-2,3-dihydro-benzofuran-3-yl}-ethyl)-[1,4]diazepan-1-yl]-ethanone] | 180 | 0.56 |
| CC(=O)N1CCN(CCc2coc3cc(Oc4ccc(-c5ccn[nH]5)cn4)ccc23)CC1 [Example 136, 1-[4-(2-{6-[5-(2H-Pyrazol-3-yl)-pyridin-2-yloxy]-benzofuran-3-yl}-ethyl)-piperazin-1-yl]-ethanone] | 190 | 0.63 |
| CNC(=O)C1CCN(CC2Cc3ccc(Oc4ccc(-c5ccn[nH]5)cc4)cc3O2)CC1 (centres unmarked) [Example 137, 1-{6-[4-(2H-Pyrazol-3-yl)-phenoxy]-2,3-dihydro-benzofuran-2-ylmethyl}-piperidine-4-carboxylic acid methylamide] | 190 | 0.57 |
| CNC(=O)C1CCN(CCc2coc3cc(Oc4ccc(-c5ccn[nH]5)cn4)ccc23)CC1 [Example 138, 1-(2-{6-[5-(2H-Pyrazol-3-yl)-pyridin-2-yloxy]-benzofuran-3-yl}-ethyl)-piperidine-4-carboxylic acid methylamide] | 190 | 0.39 |
| O=C(CO)N1CCCN(Cc2ccc3cc(Oc4ccc(-c5ccn[nH]5)cn4)ccc3n2)CC1 [Example 140, 2-Hydroxy-1-(4-{6-[5-(2H-pyrazol-3-yl)-pyridin-2-yloxy]-quinolin-2-ylmethyl}-[1,4]diazepan-1-yl)-ethanone] | 200 | 0.93 |
| CC(=O)N[C@@H]1C[C@H]2CC[C@@H](C1)N2CC1Cc2ccc(Oc3ccc(-c4ccn[nH]4)cc3)cc2O1 (stereo partly drawn) [Example 142, N-((exo)-8-{6-[4-(2H-Pyrazol-3-yl)-phenoxy]-2,3-dihydro-benzofuran-2-ylmethyl}-8-aza-bicyclo[3.2.1]oct-3-yl)-acetamide] | 210 | 0.25 |
| CC(=O)N1CCN(CCC2COc3cc(Oc4ccc(-c5ccn[nH]5)cn4)ccc32)CC1 (centres unmarked) [Example 143, 1-[4-(2-{6-[5-(2H-Pyrazol-3-yl)-pyridin-2-yloxy]-2,3-dihydro-benzofuran-3-yl}-ethyl)-piperazin-1-yl]-ethanone] | 230 | 0.85 |
| NC(=O)C1CCN(CC2Cc3ccc(Oc4ccc(-c5ccn[nH]5)cc4)cc3O2)CC1 (centres unmarked) [Example 144, 1-{6-[4-(2H-Pyrazol-3-yl)-phenoxy]-2,3-dihydro-benzofuran-2-ylmethyl}-piperidine-4-carboxylic acid amide] | 260 | 0.64 |
| O=C(CO)N1C[C@H]2C[C@@H]1CN2Cc1ccc2cc(Oc3ccc(-c4ccn[nH]4)cn3)ccc2n1 [Example 145, 2-Hydroxy-1-((1R,4R)-5-{6-[5-(2H-pyrazol-3-yl)-pyridin-2-yloxy]-quinolin-2-ylmethyl}-2,5-diaza-bicyclo[2.2.1]hept-2-yl)-ethanone] | 210 | 0.4 |
| CC(=O)N1C[C@H]2C[C@@H]1CN2Cc1ccc2cc(Oc3ccc(-c4ccn[nH]4)cn3)ccc2n1 [Example 147, 1-((1R,4R)-5-{6-[5-(2H-Pyrazol-3-yl)-pyridin-2-yloxy]-quinolin-2-ylmethyl}-2,5-diaza-bicyclo[2.2.1]hept-2-yl)-ethanone] | 160 | 0.48 |
| COC(=O)c1ccc(CN2C[C@@H]3C[C@H]2CN3Cc2nc3cc(Oc4ccc(-c5ccn[nH]5)cc4)ccc3[nH]2)cc1 [Example 150, 4-((1S,4S)-5-{5-[4-(2H-Pyrazol-3-yl)-phenoxy]-1H-benzoimidazol-2-ylmethyl}-2,5-diaza-bicyclo[2.2.1]hept-2-ylmethyl)-benzoic acid methyl ester] | 300 | 0.32 |
| COC(=O)c1ccc(C2CCN(Cc3nc4cc(Oc5ccc(-c6ccn[nH]6)cc5)ccc4[nH]3)CC2)cc1 [Example 151, 4-(1-{5-[4-(2H-Pyrazol-3-yl)-phenoxy]-1H-benzoimidazol-2-ylmethyl}-piperidin-4-yl)-benzoic acid methyl ester] | 310 | 0.4 |
| CCN(C)CCn1cc2cc(Oc3ccc(-c4ccn[nH]4)cc3)ccc2n1 [Example 154, Ethyl-methyl-(2-{5-[4-(2H-pyrazol-3-yl)-phenoxy]-indazol-2-yl}-ethyl)-amine] | 95 | 0.19 |
| CCN(CCOC)Cc1nc2cc(Oc3ccc(-c4ccn[nH]4)cc3)ccc2[nH]1 [Example 155, Ethyl-(2-methoxy-ethyl)-{5-[4-(2H-pyrazol-3-yl)-phenoxy]-1H-benzoimidazol-2-ylmethyl}-amine] | 95 | 0.18 |
| CN(C)CCn1cc2cc(Oc3ccc(-c4ccn[nH]4)cc3)ccc2n1 [Example 158, Dimethyl-(2-{5-[4-(2H-pyrazol-3-yl)-phenoxy]-indazol-2-yl}-ethyl)-amine] | 110 | 0.28 |

Now from value to molecule:

| IC50 [1] [nM] | IC50 (human LTA4 hydrolase) [nM] | Structure (SMILES) |
| --- | --- | --- |
| 150 | 0.28 | CC(=O)N1CCCN(CCc2coc3cc(Oc4ccc(-c5ccn[nH]5)cn4)ccc23)CC1 [Example 134, 1-[4-(2-{6-[5-(2H-Pyrazol-3-yl)-pyridin-2-yloxy]-benzofuran-3-yl}-ethyl)-[1,4]diazepan-1-yl]-ethanone] |
| 200 | 0.39 | O=C(CO)N1C[C@@H]2C[C@H]1CN2Cc1ccc2cc(Oc3ccc(-c4ccn[nH]4)cn3)ccc2n1 [Example 139, 2-Hydroxy-1-((1S,4S)-5-{6-[5-(2H-pyrazol-3-yl)-pyridin-2-yloxy]-quinolin-2-ylmethyl}-2,5-diaza-bicyclo[2.2.1]hept-2-yl)-ethanone] |
| 200 | 0.35 | CS(=O)(=O)NC1CCN(CCc2coc3cc(Oc4ccc(-c5ccn[nH]5)cn4)ccc23)CC1 [Example 141, N-[1-(2-{6-[5-(2H-Pyrazol-3-yl)-pyridin-2-yloxy]-benzofuran-3-yl}-ethyl)-piperidin-4-yl]-methanesulfonamide] |
| 160 | 0.37 | O=C(CO)N1CC2CCC1CN2Cc1ccc2cc(Oc3ccc(-c4ccn[nH]4)cn3)ccc2n1 (centres unmarked) [Example 146, 2-Hydroxy-1-(5-{6-[5-(2H-pyrazol-3-yl)-pyridin-2-yloxy]-quinolin-2-ylmethyl}-2,5-diaza-bicyclo[2.2.2]oct-2-yl)-ethanone] |
| 150 | 0.46 | CC(=O)N1CC2CCC1CN2Cc1ccc2cc(Oc3ccc(-c4ccn[nH]4)cn3)ccc2n1 (centres unmarked) [Example 148, 1-(5-{6-[5-(2H-Pyrazol-3-yl)-pyridin-2-yloxy]-quinolin-2-ylmethyl}-2,5-diaza-bicyclo[2.2.2]oct-2-yl)-ethanone] |
| 250 | 1.2 | CC(=O)N1CCN(Cc2coc3cc(Oc4ccc(-c5ccn[nH]5)cn4)ccc23)CC1 [Example 149, 1-(4-{6-[5-(2H-Pyrazol-3-yl)-pyridin-2-yloxy]-benzofuran-3-ylmethyl}-piperazin-1-yl)-ethanone] |
| 71 | 0.1 | CCN(CC)Cc1nc2cc(Oc3ccc(-c4ccn[nH]4)cc3)ccc2[nH]1 [Example 152, Diethyl-{5-[4-(2H-pyrazol-3-yl)-phenoxy]-1H-benzoimidazol-2-ylmethyl}-amine] |
| 89 | 0.17 | CC1CCN(Cc2nc3cc(Oc4ccc(-c5ccn[nH]5)cc4)ccc3[nH]2)CC1 [Example 153, 2-(4-Methyl-piperidin-1-ylmethyl)-5-[4-(2H-pyrazol-3-yl)-phenoxy]-1H-benzoimidazole] |
| 95 | 0.22 | COCC1CCCN(Cc2nc3cc(Oc4ccc(-c5ccn[nH]5)cc4)ccc3[nH]2)C1 (centres unmarked) [Example 156, 2-(3-Methoxymethyl-piperidin-1-ylmethyl)-5-[4-(2H-pyrazol-3-yl)-phenoxy]-1H-benzoimidazole] |
| 98 | 0.11 | COC1CCN(Cc2nc3cc(Oc4ccc(-c5ccn[nH]5)cc4)ccc3[nH]2)C1 (centres unmarked) [Example 157, 2-(3-Methoxy-pyrrolidin-1-ylmethyl)-5-[4-(2H-pyrazol-3-yl)-phenoxy]-1H-benzoimidazole] |
| 110 | 0.19 | CN(Cc1nc2cc(Oc3ccc(-c4ccn[nH]4)cc3)ccc2[nH]1)CC1CCOCC1 [Example 159, Methyl-{5-[4-(2H-pyrazol-3-yl)-phenoxy]-1H-benzoimidazol-2-ylmethyl}-(tetrahydro-pyran-4-ylmethyl)-amine] |
| 120 | 0.14 | CC[C@H](C)NCc1nc2cc(Oc3ccc(-c4ccn[nH]4)cc3)ccc2[nH]1 [Example 161, ((S)-sec-Butyl)-{5-[4-(2H-pyrazol-3-yl)-phenoxy]-1H-benzoimidazol-2-ylmethyl}-amine] |
| 120 | 0.61 | CN(C)CCn1ncc2cc(Oc3ccc(-c4ccn[nH]4)cc3)ccc21 [Example 162, Dimethyl-(2-{5-[4-(2H-pyrazol-3-yl)-phenoxy]-indazol-1-yl}-ethyl)-amine] |

Source: US9403830B2, “Inhibitors of leukotriene production” (Boehringer Ingelheim International GmbH, priority 2012, dated 2016)
